Reference: patent publication US20250388605A1, “HETEROBIFUNCTIONAL COMPOUNDS AND METHODS OF TREATING DISEASE” (Halda Therapeutics OpCo, Inc., priority 2022, published 2025)

What was measured:
VCaP cells = experiment: Cellular growth inhibition assay for VCaP cells, CellTiter-Glo; type: cell-based, human; details: 72 hours
Summary of the method: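 GI50 values come from four-parameter curve fits of luminescence data normalized to a zero baseline. Compound, in medium with 0.5% DMSO, was added one day after plating and left for 72 h before CellTiter-Glo 2.0 addition.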

[1] = test system: T-Rex 293 cell line SC3 cells having increased expression of androgen receptor protein due to exposure to doxycycline; experiment: Cellular growth inhibition, T-Rex 293 SC3 cells with doxycycline (increased androgen receptor expression), CellTiter-Glo; type: cell-based; details: T-Rex 293 SC3 cells with 10 ng/mL doxycycline (increased androgen receptor expression), 72 hours, CellTiter-Glo 2.0
Summary of the method: (§1)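 Growth inhibition is measured in an inducible AR-expressing T-Rex 293 clone, SC3, cultured with or without 10 ng/mL doxycycline in hormone-depleted medium. Test compounds are applied for 72 hours. GI50 values derive from CellTiter-Glo 2.0 signal fitted by four-parameter regression.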

[2] = test system: T-Rex 293 cell line SC3 cells lacking increased expression of androgen receptor protein; experiment: Cellular growth inhibition, T-Rex 293 SC3 cells without doxycycline (no increased androgen receptor expression), CellTiter-Glo; type: cell-based; details: T-Rex 293 SC3 cells not exposed to doxycycline (no increased androgen receptor expression), 72 hours
Summary of the method: as §1

Structure (SMILES)	GI50 (VCaP cells; Homo sapiens)	GI50 [1]	GI50 [2]	GI50 (VCaP cells)
CCS(=O)(=O)Nc1ccc(Oc2cccc(CCOC3CCN(c4ncc(C(=O)N[C@H]5C(C)(C)[C@H](Oc6ccc(C#N)c(Cl)c6)C5(C)C)cn4)CC3)c2)c(-c2cn(C)c(=O)c3[nH]ccc23)c1 [Compound I-19]	< 500 nM	< 500 nM	< 500 nM	–
CCS(=O)(=O)Nc1ccc(Oc2cccc(N3CC4(CN(CC5CCN(c6ncc(C(=O)N[C@H]7C(C)(C)[C@H](Oc8ccc(C#N)c(Cl)c8)C7(C)C)cn6)CC5)C4)C3)c2)c(-c2cn(C)c(=O)c3[nH]ccc23)c1 [Compound I-35, N-((1r, 3r)-3-(3-chloro-4-cyanophenoxy)-2,2,4,4-tetramethylcyclobutyl)-2-(4-((6-(3-(4-(ethylsulfonamido)-2-(6-methyl-7-oxo-6,7-dihydro-1H-pyrrolo[2,3-c]pyridin-4-yl)phenoxy)phenyl)-2,6-diazaspiro[3.3]heptan-2-yl)methyl)piperidin-1-yl)pyrimidine-5-carboxamide]	< 500 nM	< 500 nM	1500 to 3000 nM	–
CCS(=O)(=O)Nc1ccc(Oc2cccc(OC3CCC4(CC3)CCN(c3ncc(C(=O)N[C@H]5C(C)(C)[C@H](Oc6ccc(C#N)c(Cl)c6)C5(C)C)cn3)CC4)c2)c(-c2cn(C)c(=O)c3[nH]ccc23)c1 [Compound I-45]	< 500 nM	< 500 nM	> 3000 nM	–
CCS(=O)(=O)Nc1ccc(Oc2cccc(OCCOC3CCN(c4ccc(C(=O)N[C@H]5C(C)(C)[C@H](Oc6ccc(C#N)c(Cl)c6)C5(C)C)cn4)CC3)c2)c(-c2cn(C)c(=O)c3[nH]ccc23)c1 [Compound I-70, N-((1r, 3r)-3-(3-chloro-4-cyanophenoxy)-2,2,4,4-tetramethylcyclobutyl)-6-(4-(2-(3-(4-(ethylsulfonamido)-2-(6-methyl-7-oxo-6,7-dihydro-1H-pyrrolo[2,3-c]pyridin-4-yl)phenoxy)phenoxy)ethoxy)piperidin-1-yl)nicotinamide]	< 500 nM	< 500 nM	< 500 nM	–
CCS(=O)(=O)Nc1ccc(Oc2cccc(OCCOC3CCN(c4cnc(C(=O)N[C@H]5C(C)(C)[C@H](Oc6ccc(C#N)c(Cl)c6)C5(C)C)cn4)CC3)c2)c(-c2cn(C)c(=O)c3[nH]ccc23)c1 [Compound I-71, N-((1r, 3r)-3-(3-chloro-4-cyanophenoxy)-2,2,4,4-tetramethylcyclobutyl)-5-(4-(2-(3-(4-(ethylsulfonamido)-2-(6-methyl-7-oxo-6,7-dihydro-1H-pyrrolo[2,3-c]pyridin-4-yl)phenoxy)phenoxy)ethoxy)piperidin-1-yl)pyrazine-2-carboxamide]	< 500 nM	< 500 nM	< 500 nM	–
Cn1cc(-c2cc(N)ccc2Oc2cccc(N3CC(N4CCN(c5ncc(C(=O)N[C@H]6C(C)(C)[C@H](Oc7ccc(C#N)c(Cl)c7)C6(C)C)cn5)CC4)C3)c2F)c2cc[nH]c2c1=O [Compound I-93]	< 500 nM	< 500 nM	> 3000 nM	–
Cn1cc(-c2cc(N)ccc2Oc2cccc(OCCN3CCN(c4ncc(C(=O)N[C@H]5C(C)(C)[C@H](Oc6ccc(C#N)c(Cl)c6)C5(C)C)cn4)CC3)c2F)c2cc[nH]c2c1=O [Compound I-100]	< 500 nM	< 500 nM	> 3000 nM	–
Cn1cc(-c2cc(N)ccc2Oc2cccc(OCCC3CCN(c4ncc(C(=O)N[C@H]5C(C)(C)[C@H](Oc6ccc(C#N)c(Cl)c6)C5(C)C)cn4)CC3)c2)c2cc[nH]c2c1=O [Compound I-101]	< 500 nM	< 500 nM	> 3000 nM	–
CCS(=O)(=O)Nc1ccc(Oc2cccc(OC3CC(C4CCN(c5ncc(C(=O)N[C@H]6C(C)(C)[C@H](Oc7ccc(C#N)c(Cl)c7)C6(C)C)cn5)CC4)C3)c2)c(-c2cn(C)c(=O)c3[nH]ccc23)c1 (stereo partly drawn) [Compound I-104]	–	< 500 nM	500 to 1500 nM	< 500 nM
CCS(=O)(=O)N(C)c1ccc(Oc2cccc(N3CCN(C4CN(c5ncc(C(=O)N[C@H]6C(C)(C)[C@H](Oc7ccc(C#N)c(Cl)c7)C6(C)C)cn5)C4)CC3)c2)c(-c2cn(C)c(=O)c3[nH]ccc23)c1 [Compound I-118]	< 500 nM	< 500 nM	> 3000 nM	–
CCS(=O)(=O)Nc1ccc(Oc2cccc(CCN3CC4CN(c5ncc(C(=O)N[C@H]6C(C)(C)[C@H](Oc7ccc(C#N)c(Cl)c7)C6(C)C)cn5)CC4C3)c2)c(-c2cn(C)c(=O)c3[nH]ccc23)c1 (stereo partly drawn) [Compound I-119]	< 500 nM	< 500 nM	< 500 nM	–
CCS(=O)(=O)Nc1ccc(Oc2cccc(N3CC(N(C)C4CN(c5ncc(C(=O)N[C@H]6C(C)(C)[C@H](Oc7ccc(C#N)c(Cl)c7)C6(C)C)cn5)C4)C3)c2)c(-c2cn(C)c(=O)c3[nH]ccc23)c1 [Compound I-120]	< 500 nM	< 500 nM	> 3000 nM	–
CCS(=O)(=O)Nc1ccc(Oc2cccc(N3CC(CC4CN(c5ncc(C(=O)N[C@H]6C(C)(C)[C@H](Oc7ccc(C#N)c(Cl)c7)C6(C)C)cn5)C4)C3)c2)c(-c2cn(C)c(=O)c3[nH]ccc23)c1 [Compound I-158]	–	< 500 nM	> 3000 nM	< 500 nM
Cn1cc(-c2cc(C(C)(C)O)ccc2Oc2ccc(CC3CCN(c4ncc(C(=O)N[C@H]5C(C)(C)[C@H](Oc6ccc(C#N)c(Cl)c6)C5(C)C)cn4)CC3)cc2)c2cc[nH]c2c1=O [Compound I-201]	500 to 1500 nM	< 500 nM	500 to 1500 nM	–
Cn1cc(-c2cc(C(C)(C)O)ccc2Oc2ccc(OCC3CCN(c4ncc(C(=O)N[C@H]5C(C)(C)[C@H](Oc6ccc(C#N)c(Cl)c6)C5(C)C)cn4)CC3)cc2)c2cc[nH]c2c1=O [Compound I-202]	500 to 1500 nM	< 500 nM	500 to 1500 nM	–
Cn1cc(-c2cc(C(C)(C)O)ccc2Oc2ccc(OCCN3CCN(c4ncc(C(=O)N[C@H]5C(C)(C)[C@H](Oc6ccc(C#N)c(Cl)c6)C5(C)C)cn4)CC3)cc2)c2cc[nH]c2c1=O [Compound I-204]	< 500 nM	< 500 nM	500 to 1500 nM	–
CN(C1CCN(c2ncc(C(=O)N[C@H]3C(C)(C)[C@H](Oc4ccc(C#N)c(Cl)c4)C3(C)C)cn2)CC1)C1CN(c2ccc(Oc3ccc(C(C)(C)O)cc3-c3cn(C)c(=O)c4[nH]ccc34)cc2)C1 [Compound I-208]	500 to 1500 nM	< 500 nM	< 500 nM	–
Cn1cc(-c2cc(C(C)(C)O)ccc2Oc2ccc(N3CC4(C3)CN(c3ncc(C(=O)N[C@H]5C(C)(C)[C@H](Oc6ccc(C#N)c(Cl)c6)C5(C)C)cn3)CCO4)cc2)c2cc[nH]c2c1=O [Compound I-212]	–	< 500 nM	500 to 1500 nM	1500 to 3000 nM
Cn1cc(-c2cc(C(C)(C)O)ccc2Oc2cccc(N3CC4(CN(c5ncc(C(=O)N[C@H]6C(C)(C)[C@H](Oc7ccc(C#N)c(Cl)c7)C6(C)C)cn5)CCO4)C3)c2F)c2cc[nH]c2c1=O [Compound I-216]	< 500 nM	< 500 nM	< 500 nM	–
CCS(=O)(=O)c1ccc(Oc2cccc(OCCN3CCN(c4ncc5c(n4)CN([C@H]4C(C)(C)[C@H](Oc6ccc(C#N)c(Cl)c6)C4(C)C)C5=O)CC3)c2F)c(-c2cn(C)c(=O)c3[nH]ccc23)c1 [Compound I-217]	–	< 500 nM	< 500 nM	< 500 nM
Cn1cc(-c2cc(C(C)(C)O)ccc2Oc2ccc(N3CC(OC4CCN(c5ncc(C(=O)N[C@H]6C(C)(C)[C@H](Oc7ccc(C#N)c(Cl)c7)C6(C)C)cn5)CC4)C3)cc2)c2cc[nH]c2c1=O [Compound I-219]	< 500 nM	< 500 nM	< 500 nM	–
CCS(=O)(=O)c1ccc(Oc2ccc(OCC3CCN(c4ncc5c(n4)CN([C@H]4C(C)(C)[C@H](Cc6ccc(C#N)c(Cl)c6)C4(C)C)C5=O)CC3)cc2)c(-c2cn(C)c(=O)c3[nH]ccc23)c1 [Compound I-220]	> 3000 nM	< 500 nM	< 500 nM	–
CC(C)N(C1CCN(c2ncc(C(=O)N[C@H]3C(C)(C)[C@H](Oc4ccc(C#N)c(Cl)c4)C3(C)C)cn2)CC1)C1CN(c2cccc(Oc3ccc(C(C)(C)O)cc3-c3cn(C)c(=O)c4[nH]ccc34)c2F)C1 [Compound I-221]	> 3000 nM	< 500 nM	> 3000 nM	–
Cn1cc(-c2cc(C(C)(C)O)ccc2Oc2ccc(N3CC(CC4CCN(c5ncc(C(=O)N[C@H]6C(C)(C)[C@H](Oc7ccc(C#N)c(Cl)c7)C6(C)C)cn5)CC4)C3)cc2)c2cc[nH]c2c1=O [Compound I-232]	500 to 1500 nM	< 500 nM	> 3000 nM	–
CN(C1CN(c2ccc(Oc3ccc(C(C)(C)O)cc3-c3cn(C)c(=O)c4[nH]ccc34)cc2)C1)C1CN(c2ncc(C(=O)N[C@H]3C(C)(C)[C@H](Oc4ccc(C#N)c(Cl)c4)C3(C)C)cn2)C1 [Compound I-238]	–	< 500 nM	500 to 1500 nM	< 500 nM
CN(CC1CCN(c2ncc(C(=O)N[C@H]3C(C)(C)[C@H](Oc4ccc(C#N)c(Cl)c4)C3(C)C)cn2)CC1)C1(c2ccc(Oc3ccc(C(C)(C)O)cc3-c3cn(C)c(=O)c4[nH]ccc34)cc2)COC1 [Compound I-255]	–	< 500 nM	500 to 1500 nM	< 500 nM
Cn1cc(-c2cc(C(C)(C)O)ccc2Oc2ccc(CCCC3CC4(C3)CN(c3ncc(C(=O)N[C@H]5C(C)(C)[C@H](Oc6ccc(C#N)c(Cl)c6)C5(C)C)cn3)C4)cc2)c2cc[nH]c2c1=O [Compound I-268]	< 500 nM	< 500 nM	500 to 1500 nM	–
Cn1cc(-c2cc(C(C)(C)O)ccc2Oc2ccc(N3CC(CC4CN(c5ncc(C(=O)N[C@H]6C(C)(C)[C@H](Oc7ccc(C#N)c(Cl)c7)C6(C)C)cn5)C4)C3)cc2)c2cc[nH]c2c1=O [Compound I-280]	< 500 nM	< 500 nM	1500 to 3000 nM	–
